Data set [1] is described as follows: Clinical Study #2: plasma pharmacokinetics of dextromethorphan, dextrorphan and quinidine, single and multiple dose. The following applies: for AUC(0-t) / Cmax / Tmax: human, in vivo, mean; for AUC(0-t): AUC (0-12) (plasma); for Cmax: Cmax (plasma); for Tmax: Tmax (plasma). On the procedure:
Descriptive statistics for each parameter, including mean, median, standard deviation, coefficient of variation, N, minimum, and maximum were calculated for all of the subjects by Day. In addition, descriptive statistics were presented by the subgroups: extensive metabolizer (EM) and poor metabolizer (PM).
The ANOVA model included the factors group (EM or PM), subject within group, day, and the interaction term day by group. The group effect was tested using the subject within group mean square, and all other main effects were tested using the residual error (error mean square). In addition, tests of the hypotheses Day 1=Day 4, Day 1=Day 8, and Day 4=Day 8 were performed.

Data set [2] can be described thus: Clinical Study #5: concentrations in plasma of DM, DX and Q and correlation with pain intensity. In kind it is in vivo, human. The settings on record: final visit; for Concentration in plasma, Mean / Concentration in plasma, Median: extensive metabolizers. On the procedure: Subjects visited the clinic every two weeks during the four-week duration of the study and were contacted by telephone during weeks without clinic visits. At each subsequent study visit or weekly phone call, the subjects were given the Pain Intensity Rating Scale and the Pain Relief Rating Scale and were queried regarding any adverse events that might have occurred since their previous visit. Subjects were administered the Peripheral Neuropathy Quality of Life (QOL) Instrument on Days 1 and 29 (or the final visit). Blood samples were taken at the visits on Day 15 and Day 29 to determine concentrations in plasma of DM, DX, and Q.

Data set [3] is classed as in vivo. The source says:
An adverse event was any unfavorable and unintended sign (including an abnormal laboratory finding, for example), symptom, or disease temporally associated with the use of a medicinal product, whether or not considered related to the medicinal product. Changes associated with normal growth and development not varying in frequency or magnitude from that ordinarily anticipated clinically are not adverse events (for example, onset of menstruation occurring at a physiologically appropriate time). Clinical adverse events were described by diagnosis and not by symptoms when possible (for example, cold or seasonal allergies, instead of “runny nose”).
The severity of adverse events was graded on a 3-point scale and reported in detail as indicated on the Case Report Form: mild—easily tolerated, causing minimal discomfort, and not interfering with normal everyday activities; moderate—sufficiently discomforting to interfere with normal everyday activities; and severe—incapacitating and/or preventing normal everyday activities.
Subjects were instructed to promptly report any adverse event. The serious adverse event was assessed for the following details: seriousness of event, start date, stop date, intensity, frequency, relationship to test drug, action taken regarding test drug, treatment required, and outcome to date. These details were recorded on the Case Report Form. Such preliminary reports were followed by detailed descriptions that included copies of hospital case reports, autopsy reports, and other documents when requested and applicable.
Blood and urine were collected at the screening visit and Day 29 for clinical chemistry, hematology, urinalysis, and pregnancy testing. In the event of an abnormal laboratory test value, the test was repeated within one week, and the subject was followed up until the value returned to the normal range and/or until an adequate explanation of the abnormality was found.
Values were obtained for systolic and diastolic blood pressure, heart rate, and respiration rate on the screening visit and all other study visits. All values outside the pre-defined ranges were flagged in the subject data listings. Electrocardiography (twelve lead) was used to obtain ventricular rate (VR), QT, Q-Tc intervals, […] (PR), and QRS duration. A blood sample (10 mL whole blood) was taken from each subject at the Screening Visit for CYP2D6 genotyping to determine which subjects were poor metabolizers of DM and which were extensive metabolizers. Blood samples were taken on Day 29 for the determination of concentrations of DM, DX, and Q in plasma. The relationship between the concentration of drug in plasma and changes in CNS-LS scores was determined, and the effect of the CYP2D6 genotype on this relationship was evaluated.

Where [4] appears, read: Day 1, All Subjects, 30 mg DM HBr/25 mg Q sulfate capsule every 12 hours.
The mark [5] stands for this setting: Day 1, EM, 30 mg DM HBr/25 mg Q sulfate capsule every 12 hours.
The mark [6] stands for this setting: Day 1, PM, 30 mg DM HBr/25 mg Q sulfate capsule every 12 hours.
[7] abbreviates: Day 4, All Subjects, 30 mg DM HBr/25 mg Q sulfate capsule every 12 hours.
[8] abbreviates: Day 4, EM, 30 mg DM HBr/25 mg Q sulfate capsule every 12 hours.
[9] abbreviates: Day 4, PM, 30 mg DM HBr/25 mg Q sulfate capsule every 12 hours.
Where [10] appears, read: Day 8, All Subjects, 30 mg DM HBr/25 mg Q sulfate capsule every 12 hours.
The mark [11] stands for this setting: Day 8, EM, 30 mg DM HBr/25 mg Q sulfate capsule every 12 hours.
Where [12] appears, read: Day 8, PM, 30 mg DM HBr/25 mg Q sulfate capsule every 12 hours.

As for `CN1CC[C@@]23CCCC[C@@H]2[C@@H]1Cc1ccc(O)cc13` [Dextrorphan, dextrorphan], the AUC(0-t) worked out at 749 ng·h/mL in data set [1] (setting [4]); 934 ng·h/mL in data set [1] (setting [5]); 91 ng·h/mL in data set [1] (setting [6]); 742 ng·h/mL in data set [1] (setting [7]); 849 ng·h/mL in data set [1] (setting [8]); 365 ng·h/mL in data set [1] (setting [9]). In addition, the AUC(0-t) in data set [1] (setting [10]) came to 896 ng·h/mL; in data set [1] (setting [11]), 1000 ng·h/mL; in data set [1] (setting [12]), 530 ng·h/mL. Moreover, the Cmax was determined as 99.5 ng/mL in data set [1] (setting [4]); 125 ng/mL in data set [1] (setting [5]); 10.8 ng/mL in data set [1] (setting [6]); 69.9 ng/mL in data set [1] (setting [7]); 79.3 ng/mL in data set [1] (setting [8]); 37 ng/mL in data set [1] (setting [9]). Also, the figures for the Cmax in data set [1] (setting [10]), in data set [1] (setting [11]) and in data set [1] (setting [12]) were 108 ng/mL, 124 ng/mL and 51.5 ng/mL, respectively. Moreover, the Tmax in data set [1] (setting [4]) was found to be 3.78 h; in data set [1] (setting [5]) it was 4 h; in data set [1] (setting [6]), 3 h; in data set [1] (setting [7]) it was 2.17 h; in data set [1] (setting [8]), 2.21 h; in data set [1] (setting [9]), 2 h. Besides, the figures for the Tmax in data set [1] (setting [10]), in data set [1] (setting [11]) and in data set [1] (setting [12]) were 32.7 h, 41.2 h and 2.99 h, respectively. For the same compound, in data set [1] (poor metabolizers), the “Fold increase in AUC (0-12) from Day 1 to Day 8” value was determined as 4.8 fold. The “Concentration in plasma, Mean” value is listed as 70.7 ng/mL in data set [2] (DM/Q MTD 30 mg); 65.4 ng/mL in data set [2] (DM/Q MTD 60 mg); 88.4 ng/mL in data set [2] (DM/Q MTD 90 mg); 146.6 ng/mL in data set [2] (DM/Q MTD 120 mg); 123.9 ng/mL in data set [2] (Total, all MTDs). The “Concentration in plasma, Median” value in data set [2] (DM/Q MTD 30 mg) came out at 94.6 ng/mL; in data set [2] (DM/Q MTD 60 mg), 58.2 ng/mL; in data set [2] (DM/Q MTD 90 mg), 88.4 ng/mL; in data set [2] (DM/Q MTD 120 mg), 122.6 ng/mL; in data set [2] (Total, all MTDs), 102.6 ng/mL. The compound also had a Concentration in plasma in data set [2] (poor metabolizer (MTD of 60 mg)) of 41.0 ng/mL.

Consider `C=C[C@H]1C[N@@]2CC[C@H]1C[C@@H]2[C@@H](O)c1ccnc2ccc(OC)cc12` [Quinidine, quinidine], for which, in data set [3] (28 days, twice daily), the Subjects with dizziness is on record as 2.7%, the Subjects with nausea was determined as 8.1% and the Subjects with somnolence amounted to 0%. Further, the “Subjects who withdrew because of adverse events” value in data set [3] (human, in vivo, 29 days) was 8.1%. Moreover, the “Subjects reporting serious adverse events” value in data set [3] (judged not related to the study drug) is “only other serious adverse event”. For the same compound, the Tmax in data set [1] amounted to 1.71 h.

Usually AUC(0-t) stands for exposure summed from dosing to a finite time, without extrapolation to infinity. Lower therefore signals less exposure. For orientation: Cmax means the highest concentration seen after dosing. Usually Tmax stands for the time from dosing to the highest level.
